Experimental data reported in ChEMBL document CHEMBL2069188, “Structural requirements for the antitubercular quaternized triflupromazine pharmacophore” (Bioorg Med Chem Lett, 2012).
≈ marks a conversion by molar mass, not a printed value.

What was measured:
[1] = Selectivity index, ratio of IC50 for african green monkey Vero cells to MIC for Mycobacterium tuberculosis H37Rv; format: functional
[2] = test system: Mycobacterium tuberculosis; test: Antitubercular activity against Mycobacterium tuberculosis H37Rv by microplate alamar blue assay; format: functional
Vero = test: Cytotoxicity against african green monkey Vero cells […] after 3 days; format: cell-based; conditions: Chlorocebus sabaeus, 72 h

Row | Structure (SMILES) | Selectivity Index [1] | MIC90 [2] [µM] | IC50 (Vero) [µM]
1 | C[N+](C)(CCCN1c2ccccc2Sc2ccc(C(F)(F)F)cc21)Cc1ccc(Br)cc1.[Br-] | >21 | 6 | > 128
2 | C[N+](C)(CCCN1c2ccccc2Sc2ccc(C(F)(F)F)cc21)Cc1ccc(I)cc1.[Br-] | >16 | 5.9 | 92.7
3 | FC(F)(F)c1ccc2c(c1)N(Cc1cn(Cc3ccc(Cl)cc3)nn1)c1ccccc1S2 |  | > 100 | > 128
4 | CCCC[N+](C)(C)CCCN1c2ccccc2Sc2ccc(C(F)(F)F)cc21 |  | 53.2 | 
5 | C#CC[N+](C)(C)CCCN1c2ccccc2Sc2ccc(C(F)(F)F)cc21 |  | 121 | 
6 | C[N+](C)(CC#N)CCCN1c2ccccc2Sc2ccc(C(F)(F)F)cc21 |  | > 128 | 
7 | C=CC[N+](C)(C)CCCN1c2ccccc2Sc2ccc(C(F)(F)F)cc21 |  | > 128 | 
8 | C=CC[N+](C)(C)CCCN1c2ccccc2Sc2ccccc21 |  | > 128 | 
9 | C#CC[N+](C)(C)CCCN1c2ccccc2Sc2ccccc21 |  | > 128 | 
10 | C[N+](C)(CCCN1c2ccccc2Sc2ccc(C(F)(F)F)cc21)Cc1ccc(F)cc1.[Cl-] | >11 | 11.9 | > 128
11 | C[N+](C)(CCCN1c2ccccc2Sc2ccc(C(F)(F)F)cc21)Cc1ccc(Cl)cc1.[Cl-] | >14 | 9 | > 128
12 | CO[C@H]1/C=C/O[C@@]2(C)Oc3c(C)c(O)c4c(O)c(c(/C=N/N5CCN(C)CC5)c(O)c4c3C2=O)NC(=O)/C(C)=C\C=C\[C@H](C)[C@H](O)[C@@H](C)[C@@H](O)[C@@H](C)[C@H](OC(C)=O)[C@@H]1C [RIFAMPIN] | >909 | 0.09 (≈ 0.0741 µg/mL) | > 100
